Measured values: patent publication US20260132132A1, “3A,4,5,6-TETRAHYDRO-1 H-PYRAZOLO[3,4-C]PYRIDIN-7(7AH)-ONE DERIVATIVES AS FACTOR XIIA INHIBITORS” (KALVISTA PHARMACEUTICALS LIMITED, priority 2022, published 2026)

How the values were obtained:
FXa = FXa (Homo sapiens, UniProt P00742); assay: Related protease inhibition: FXa, fluorogenic substrate; assay type: biochemical; conditions: fluorogenic substrate at Km, 25° C.; H1-H3 = % activity at 40 μM
Procedure: Human serine protease enzyme Plasma Kallikrein, KLK1, FXa, Plasmin, Thrombin and Trypsin were assayed for enzymatic activity using an appropriate fluorogenic substrate at Km concentration, FXIa at fixed substrate concentration of 100 μM and various concentrations of the test compound.

[1] = biological target: T1, Human Factor XIIa (hFXIIa) (Homo sapiens, UniProt P00748); assay: Determination of Human Factor XIIa (hFXIIa) inhibition, fluorogenic substrate IC50 assay; assay type: biochemical; conditions: fluorogenic substrate H-DPro-Phe-Arg-AFC at Km, 25° C., read-out: Human FXIIa IC50
T1 construct: purchased Enzyme Research Laboratories
T1 sequence (P00748 373-615 limits assumed): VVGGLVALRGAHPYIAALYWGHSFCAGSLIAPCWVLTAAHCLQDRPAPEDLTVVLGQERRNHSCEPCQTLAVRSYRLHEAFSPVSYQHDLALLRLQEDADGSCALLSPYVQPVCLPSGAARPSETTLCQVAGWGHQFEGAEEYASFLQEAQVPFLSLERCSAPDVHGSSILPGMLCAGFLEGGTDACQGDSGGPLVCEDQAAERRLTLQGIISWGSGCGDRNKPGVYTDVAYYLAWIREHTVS
T1 sequence (P00748 20-372 partner limits assumed): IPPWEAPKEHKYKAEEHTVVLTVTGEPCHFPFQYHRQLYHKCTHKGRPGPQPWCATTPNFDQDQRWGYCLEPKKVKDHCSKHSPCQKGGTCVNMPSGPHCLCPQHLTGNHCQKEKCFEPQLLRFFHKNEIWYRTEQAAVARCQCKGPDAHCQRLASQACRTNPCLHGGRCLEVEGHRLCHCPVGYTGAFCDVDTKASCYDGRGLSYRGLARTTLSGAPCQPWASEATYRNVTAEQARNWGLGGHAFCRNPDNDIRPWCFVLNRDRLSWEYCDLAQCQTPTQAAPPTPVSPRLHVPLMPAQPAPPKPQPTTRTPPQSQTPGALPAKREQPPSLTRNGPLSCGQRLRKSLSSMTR
Procedure: Determination of Human Factor XIIa (hFXIIa) inhibition
The Km for the cleavage of the substrate by hFXIIa was determined by standard transformation of the Michaelis-Menten equation, with subsequent inhibition assays performed at substrate Km concentration.

Sequence of FXa (P00742 235-488 limits assumed): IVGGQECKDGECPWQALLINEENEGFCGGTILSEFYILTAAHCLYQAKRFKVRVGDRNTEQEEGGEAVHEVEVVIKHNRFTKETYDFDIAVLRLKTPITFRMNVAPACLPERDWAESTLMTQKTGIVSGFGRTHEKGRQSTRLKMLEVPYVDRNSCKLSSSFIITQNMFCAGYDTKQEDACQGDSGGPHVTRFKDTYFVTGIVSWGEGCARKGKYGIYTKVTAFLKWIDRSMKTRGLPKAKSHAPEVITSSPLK
Sequence of FXa (P00742 41-179 partner limits assumed): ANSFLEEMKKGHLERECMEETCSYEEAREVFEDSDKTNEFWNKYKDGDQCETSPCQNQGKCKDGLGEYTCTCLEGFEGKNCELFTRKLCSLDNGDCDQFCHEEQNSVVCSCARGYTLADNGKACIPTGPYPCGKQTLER

Compound | IC50 (FXa) | IC50 [1]
CCNC(=O)c1nn(-c2cccc(Cl)c2)c2c1CCN(c1ccc3c(c1)C(=O)N(C)CC(=O)N3C)C2=O [Example 1375, 1-(3-chlorophenyl)-6-(1,4-dimethyl-2,5-dioxo-2,3,4,5-tetrahydro-1H-benzo[e][1,4]diazepin-7-yl)-N-ethyl-7-oxo-4,5,6,7-tetrahydro-1H-pyrazolo[3,4-c]pyridine-3-carboxamide] | > 40 µM | 3 to 10 µM
O=C(NCc1cccnn1)c1nn(-c2cccc(Cl)c2)c2c1CCN(c1ccc3c(c1)CN(CCO)CC3)C2=O [Example 1204, 1-(3-chlorophenyl)-6-(2-(2-hydroxyethyl)-1,2,3,4-tetrahydroisoquinolin-7-yl)-7-oxo-N-(pyridazin-3-ylmethyl)-4,5,6,7-tetrahydro-1H-pyrazolo[3,4-c]pyridine-3-carboxamide] | > 40 µM | 0.1 to 0.3 µM
Cc1ccncc1CNC(=O)c1nn(-c2cccc(Cl)c2)c2c1CCN(c1ccc3c(c1)C(=O)N(CCCO)CCO3)C2=O [Example 1376, 1-(3-chlorophenyl)-6-(4-(3-hydroxypropyl)-5-oxo-2,3,4,5-tetrahydrobenzo[f][1,4]oxazepin-7-yl)-N-((4-methylpyridin-3-yl)methyl)-7-oxo-4,5,6,7-tetrahydro-1H-pyrazolo[3,4-c]pyridine-3-carboxamide] | 3 to 10 µM | 0.01 to 0.1 µM
CCN1CCc2ccc(N3CCc4c(C(=O)N[C@H](CO)c5ccccc5)nn(-c5cccc(Cl)c5)c4C3=O)cc2C1 [Example 1051, (S)-1-(3-chlorophenyl)-6-(2-ethyl-1,2,3,4-tetrahydroisoquinolin-7-yl)-N-(2-hydroxy-1-phenylethyl)-7-oxo-4,5,6,7-tetrahydro-1H-pyrazolo[3,4-c]pyridine-3-carboxamide] | 3 to 10 µM | 0.01 to 0.1 µM
CN1CCc2ccc(N3CCc4c(C(=O)NS(C)(=O)=O)nn(-c5cccc(Cl)c5)c4C3=O)cc2C1=O [Example 1345, 1-(3-chlorophenyl)-6-(2-methyl-1-oxo-1,2,3,4-tetrahydroisoquinolin-7-yl)-N-(methylsulfonyl)-7-oxo-4,5,6,7-tetrahydro-1H-pyrazolo[3,4-c]pyridine-3-carboxamide] | > 40 µM | 3 to 10 µM
CN1CCc2ccc(N3CCc4c(C(=O)NCC5CC5)nn(-c5cccc(Cl)n5)c4C3=O)cc2C1=O [Example 2020, 1-(6-Chloropyridin-2-yl)-N-(cyclopropylmethyl)-6-(2-methyl-1-oxo-1,2,3,4-tetrahydroisoquinolin-7-yl)-7-oxo-4,5,6,7-tetrahydro-1H-pyrazolo[3,4-c]pyridine-3-carboxamide] | > 40 µM | 0.1 to 0.3 µM
O=C(NCC1CC1)c1nn(-c2cccc(Cl)c2)c2c1CCN(c1cc3c(cc1F)CCN(CCO)C3)C2=O [Example 1123, 1-(3-chlorophenyl)-N-(cyclopropylmethyl)-6-(6-fluoro-2-(2-hydroxyethyl)-1,2,3,4-tetrahydroisoquinolin-7-yl)-7-oxo-4,5,6,7-tetrahydro-1H-pyrazolo[3,4-c]pyridine-3-carboxamide] | > 40 µM | 0.1 to 0.3 µM
CN1CCc2ccc(N3CCc4c(C(=O)NC(CO)c5cccnc5)nn(-c5cccc(Cl)c5)c4C3=O)cc2C1=O (stereo not shown) [Example 1187, 1-(3-chlorophenyl)-N-(2-hydroxy-1-(pyridin-3-yl)ethyl)-6-(2-methyl-1-oxo-1,2,3,4-tetrahydroisoquinolin-7-yl)-7-oxo-4,5,6,7-tetrahydro-1H-pyrazolo[3,4-c]pyridine-3-carboxamide] | > 40 µM | 0.3 to 1 µM
O=C(NCc1ccccc1)c1nn(-c2cccc(Cl)c2)c2c1CCN(c1ccc3c(c1)CN(C1CC1)CC3)C2=O [Example 1029, N-benzyl-1-(3-chlorophenyl)-6-(2-cyclopropyl-1,2,3,4-tetrahydroisoquinolin-7-yl)-7-oxo-4,5,6,7-tetrahydro-1H-pyrazolo[3,4-c]pyridine-3-carboxamide] | > 100 µM | 0.3 to 1 µM

Continued, values first:

IC50 (FXa) | IC50 [1] | Compound
3 to 10 µM | 3 to 10 µM | CCOC(=O)c1nn(-c2cccc(Cl)c2)c2c1CCN(c1cccc(-n3ccccc3=O)c1)C2=O [Example 1350, ethyl 1-(3-chlorophenyl)-7-oxo-6-(3-(2-oxopyridin-1(2H)-yl)phenyl)-4,5,6,7-tetrahydro-1H-pyrazolo[3,4-c]pyridine-3-carboxylate]
> 40 µM | 0.1 to 0.3 µM | Cc1ccnc(C)c1CNC(=O)c1nn(-c2cccc(Cl)c2)c2c1CCN(c1ccc3c(c1)C(=O)N(CCO)CC3)C2=O [Example 1326, 1-(3-chlorophenyl)-N-((2,4-dimethylpyridin-3-yl)methyl)-6-(2-(2-hydroxyethyl)-1-oxo-1,2,3,4-tetrahydroisoquinolin-7-yl)-7-oxo-4,5,6,7-tetrahydro-1H-pyrazolo[3,4-c]pyridine-3-carboxamide]
> 100 µM | 0.3 to 1 µM | O=C(NCc1cccnc1)c1nn(-c2cccc(Cl)c2)c2c1CCN(c1cccc(CN3CCCCC3)c1)C2=O [Example 1003, 1-(3-chlorophenyl)-7-oxo-6-(3-(piperidin-1-ylmethyl)phenyl)-N-(pyridin-3-ylmethyl)-4,5,6,7-tetrahydro-1H-pyrazolo[3,4-c]pyridine-3-carboxamide]
> 40 µM | 1 to 3 µM | CN(Cc1ccccc1)C(=O)c1nn(-c2cccc(Cl)c2)c2c1CCN(c1cccc(CN3CCCCC3)c1)C2=O [Example 1004, N-benzyl-1-(3-chlorophenyl)-N-methyl-7-oxo-6-(3-(piperidin-1-ylmethyl)phenyl)-4,5,6,7-tetrahydro-1H-pyrazolo[3,4-c]pyridine-3-carboxamide]
> 40 µM | 0.1 to 0.3 µM | CCCN1CCc2ccc(N3CCc4c(C(=O)NCc5cc(C)n(C)n5)nn(-c5cccc(Cl)c5)c4C3=O)cc2C1=O [Example 1210, 1-(3-chlorophenyl)-N-((1,5-dimethyl-1H-pyrazol-3-yl)methyl)-7-oxo-6-(1-oxo-2-propyl-1,2,3,4-tetrahydroisoquinolin-7-yl)-4,5,6,7-tetrahydro-1H-pyrazolo[3,4-c]pyridine-3-carboxamide]
10 to 40 µM | 0.01 to 0.1 µM | Cn1ccc(CNC(=O)c2nn(-c3cccc(Cl)c3)c3c2CCN(c2ccc4c(c2)CN(CCO)CC4)C3=O)n1 [Example 1132, 1-(3-chlorophenyl)-6-(2-(2-hydroxyethyl)-1,2,3,4-tetrahydroisoquinolin-7-yl)-N-((1-methyl-1H-pyrazol-3-yl)methyl)-7-oxo-4,5,6,7-tetrahydro-1H-pyrazolo[3,4-c]pyridine-3-carboxamide]
> 40 µM | 0.1 to 0.3 µM | O=C(NCC1CC1)c1nn(-c2cccc(Cl)c2)c2c1CCN(c1cc3c(cn1)CCN(CCO)C3)C2=O [Example 1118, 1-(3-chlorophenyl)-N-(cyclopropylmethyl)-6-(6-(2-hydroxyethyl)-5,6,7,8-tetrahydro-2,6-naphthyridin-3-yl)-7-oxo-4,5,6,7-tetrahydro-1H-pyrazolo[3,4-c]pyridine-3-carboxamide]
10 to 40 µM | 0.01 to 0.1 µM | O=C(NCc1ccn(C2CC2)n1)c1nn(-c2cccc(Cl)c2)c2c1CCN(c1ccc3c(c1)CN(CCO)CC3)C2=O [Example 1146, 1-(3-chlorophenyl)-N-((1-cyclopropyl-1H-pyrazol-3-yl)methyl)-6-(2-(2-hydroxyethyl)-1,2,3,4-tetrahydroisoquinolin-7-yl)-7-oxo-4,5,6,7-tetrahydro-1H-pyrazolo[3,4-c]pyridine-3-carboxamide]
